We go through 3 compounds from US20060073574A1 (priority 2001, published 2006).

In one series the test system is Saccharomyces cerevisiae. As to the kind of experiment: antifungal activity test against Saccharomyces cerevisiae. As to conditions: tested against Saccharomyces cerevisiae.
A further series concerns BSE or scrapie agents. As to conditions: cited from earlier work; for survival times: hamsters and mice infected intracerebrally with BSE or scrapie agents; for delaying the onset of symptoms associated with scrapie and BSE: transmissible spongiform encephalopathies scrapie and BSE.
For series [1], the system named is human immunodeficiency virus (HIV). The conditions noted are these: cited from earlier work; for inhibition of HIV infection / HIV-1 replication: cultured cells.
A further series relates to Leishmania. As to conditions: cited from earlier work.
For series [2] the following is noted: amphotericin B: intravenous or intrathecal routes; cited from earlier work.
The conditions of series [3]: compared with amphotericin B; cited from earlier work.
For series [4] the following is noted: derivative of amphotericin B; cited from earlier work.

For `C[C@@H]1[C@H](O)[C@@H](C)/C=C/C=C/C=C/C=C/C=C/C=C/C=C/[C@H](O[C@@H]2O[C@@H](C)[C@@H](O)[C@H](N)[C@@H]2O)C[C@@H]2O[C@](O)(C[C@@H](O)C[C@@H](O)CCC[C@@H](O)C[C@@H](O)CC(=O)O[C@H]1C)C[C@H](O)[C@H]2C(=O)O` [8-deoxyamphotericin B], the antifungal activity entry in the series with Saccharomyces cerevisiae is given as “as great as that of amphotericin B”.

For the compound `C[C@@H]1[C@H](O)[C@@H](C)/C=C/C=C/C=C/C=C/C=C/C=C/C=C/[C@H](O[C@@H]2O[C@H](C)[C@@H](O)[C@H](N)[C@@H]2O)C[C@@H]2O[C@](O)(C[C@@H](O)C[C@@H](O)[C@H](O)CC[C@@H](O)C[C@@H](O)CC(=O)O[C@H]1C)C[C@H](O)[C@H]2C(=O)O` [Amphotericin B], in the series on BSE or scrapie agents, the survival times entry is recorded as “prolonged the survival times”; the “delaying the onset of symptoms associated with scrapie and BSE” value is reported as “showed activity in delaying the onset of symptoms”. Further, the “inhibition of HIV infection / HIV-1 replication” value in series [1] (in vitro) was “inhibits infection of cultured cells”. For the same compound, the “activity against Leishmania” value with Leishmania was “active against Leishmania”. Besides, the toxicity entry in series [2] was “consistently associated with a number of toxic side-effects”.

Regarding `CNC[C@H](O)[C@@H](O)[C@H](O)[C@H](O)CO.C[C@@H]1[C@H](O)[C@@H](C)/C=C/C=C/C=C/C=C/C=C/C=C/C=C/[C@H](O[C@@H]2O[C@H](C)[C@@H](O)[C@H](NCC(=O)[C@@H](O)[C@@H]3OC(c4ccccc4)OC[C@H]3O)[C@@H]2O)C[C@@H]2O[C@](O)(C[C@@H](O)C[C@@H](O)[C@H](O)CC[C@@H](O)C[C@@H](O)CC(=O)O[C@H]1C)C[C@H](O)[C@H]2C(=O)O` (stereo partly shown) [MS-8209], in the series on BSE or scrapie agents, the survival times result is recorded as “prolonged the survival times”; the “delaying the onset of symptoms associated with scrapie and BSE” value is reported as “showed activity in delaying the onset of symptoms”. Moreover, in series [1] (HIV CD4+ cells), the “T-cell activation via the CD3/TcR” value is given as “restore T-cell activation”. The “inhibition of HIV infection / HIV-1 replication” value in series [1] (in vitro) was “inhibit HIV-1 replication in vitro in all cell types”. Besides, the cytotoxicity entry in series [1] (in vitro, all cell types) is “without cytotoxicity”. Besides, the water solubility result in series [3] is given as “more water soluble”. The activity retained result in series [4] is “retains activity”.
